Legend:
Human pol ι = target: T1, Human pol ι (Homo sapiens, UniProt Q9UNA4); assay: Radioactive gel-based primer extension assay on non-damaged DNA, pol ι; format: biochemical; conditions: average ± standard error, three experiments
T1 construct: purchased Enzymax Inc. (Lexington, KY)
T1 sequence (Q9UNA4 1-740): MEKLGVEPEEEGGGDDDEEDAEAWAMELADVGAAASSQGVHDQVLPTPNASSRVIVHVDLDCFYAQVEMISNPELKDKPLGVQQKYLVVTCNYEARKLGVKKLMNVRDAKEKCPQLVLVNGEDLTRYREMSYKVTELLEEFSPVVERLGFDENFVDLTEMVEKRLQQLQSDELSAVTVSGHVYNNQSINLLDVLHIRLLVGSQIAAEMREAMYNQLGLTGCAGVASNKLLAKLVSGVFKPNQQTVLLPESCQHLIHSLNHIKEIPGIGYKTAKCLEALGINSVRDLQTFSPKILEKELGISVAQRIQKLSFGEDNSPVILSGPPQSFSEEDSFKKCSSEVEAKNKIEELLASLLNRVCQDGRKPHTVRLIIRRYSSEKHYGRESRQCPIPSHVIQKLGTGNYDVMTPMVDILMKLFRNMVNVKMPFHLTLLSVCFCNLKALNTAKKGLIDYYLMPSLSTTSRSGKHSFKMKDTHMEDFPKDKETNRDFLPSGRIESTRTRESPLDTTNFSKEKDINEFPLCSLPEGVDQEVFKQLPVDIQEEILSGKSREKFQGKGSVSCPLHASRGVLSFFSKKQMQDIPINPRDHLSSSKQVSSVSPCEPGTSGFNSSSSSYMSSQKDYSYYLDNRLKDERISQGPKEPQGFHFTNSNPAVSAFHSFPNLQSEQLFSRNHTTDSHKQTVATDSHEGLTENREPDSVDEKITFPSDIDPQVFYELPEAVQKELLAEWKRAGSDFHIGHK
Experimental: (§1) The reactions with pol κ, pol η, and pol ι were carried out in the buffers containing 25 mM Tris-HCl, pH 7.5, 8 mM MgCl2, 10% glycerol, 100 µg/mL bovine serum albumin, and 5 mM DTT. Buffers for pol δ reactions contained 40 mM Hepes-KOH, pH 6.8, 10% glycerol, 200 µg/mL bovine serum albumin, 1 mM DTT, and 8 mM MgCl2. Final concentration of pol κ, pol η, pol ι, or pol δ in the reaction was 0.25 nM, 1 nM, 2.5 nM, or 4 nM, respectively. In this assay, a polymerase was preincubated with the compound for 15 min at room temperature. Primer extensions were then initiated by the addition of DNA substrate at final concentration of 5 nM and carried out for 30 min at room temperature in the presence of 100 µM dCTP and dGTP. The reactions were terminated by the addition of an equal volume of a dye solution containing 95% (v/v) formamide, 10 mM EDTA, 0.03% (w/v) xylene cyanol, and 0.03% (w/v) bromphenol blue. Reaction products were separated through a 15% acrylamide gel containing 8 M urea and visualized with a PhosphorImager screen. The ratio of extended primer to the total amount of primer was measured using ImageQuant 5.2 software to calculate the percentage of primer extended. IC50 values were determined by fitting the data to variable slope four-parameter equations using GraphPad Prism 5.

[1] = target: T2, Human pol η (residues 1–437) (Homo sapiens, UniProt Q9Y253); assay: Radioactive gel-based primer extension assay on non-damaged DNA, pol η; format: biochemical; conditions: average ± standard error, three experiments
T2 construct: Human pol η (residues1–437) was purified following the same procedures; made in house
T2 sequence (Q9Y253 1-437): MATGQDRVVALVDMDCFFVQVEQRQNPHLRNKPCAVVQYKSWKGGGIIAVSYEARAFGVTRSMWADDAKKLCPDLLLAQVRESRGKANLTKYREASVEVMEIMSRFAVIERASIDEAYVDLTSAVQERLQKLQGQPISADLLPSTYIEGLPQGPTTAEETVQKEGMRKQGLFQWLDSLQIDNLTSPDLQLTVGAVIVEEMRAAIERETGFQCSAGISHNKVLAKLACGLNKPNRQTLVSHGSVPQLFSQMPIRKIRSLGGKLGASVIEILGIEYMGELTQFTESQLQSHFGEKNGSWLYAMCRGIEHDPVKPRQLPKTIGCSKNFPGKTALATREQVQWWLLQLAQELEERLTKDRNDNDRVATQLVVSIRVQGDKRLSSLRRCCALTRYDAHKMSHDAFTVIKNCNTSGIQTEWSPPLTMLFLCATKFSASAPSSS
Experimental: as §1, with “Prism 5. […]” for “Prism 5.”

## CCOc1nc2cccc(C(=O)OC(C)OC(=O)OC3CCCCC3)c2n1Cc1ccc(-c2ccccc2-c2nnn[nH]2)cc1 (centres unmarked) [candesartan cilexetil, Candesartan cilexetil]
Human pol ι
  IC50: 6.2 ± 0.6 µM
[1]
  IC50: 11.2 ± 1 µM
